Laboratory results: patent publication US7785705B2, “Flower thinning agent” (priority 2002, dated 2010)

Assays:
pear (Kosui) tree [1] = assay: Flower thinning effect on pear (Kosui) tree at low air temperature and bad weather; settings: low air temperature at flowering, bad weather
Excerpt: Using a pear (Kosui) tree, flower thinning effect was confirmed. That is, using the aforementioned pear tree, the flower thinning agent of Example 1 was spread at a concentration indicated in Table 10 two times, at a flowering rate of 30% and 80%. In this respect, at the present experiment, an air temperature at flowering was low, and weather was bad. Therefore, a scatter in flowering was greater than usual. […] Treatment was every branch treatment, and the agent was spread with a back loading sprayer.
(§1) Assessment was expressed as a remaining fruit rate relative to the number of flowering. Regarding medicine damage, results of observation of a leaf state such as defoliation, discolored leaf and deformed leaf were expressed by the following five stages.
According to the same manner as that of Application Example 64 except that any of the flower thinning agents of Examples 4, 5, 7, 9, 15 and 21, and Comparative Examples 1, 4, 8 and 10 was used in place of the flower thinning agent of Example 1, an experiment was performed.
(§2) An effective ingredient concentration was based on a solid matter weight of a lime and sulfur agent.
(§3) An effective ingredient concentration was based on a solid matter weight of itaconic acid.
(§4) An effective ingredient concentration was based on a solid matter weight of high purity lecithin.
An effective ingredient concentration was based on a solid matter weight of calcium formate.

pear (Kosui) tree [2] = assay: Flower thinning effect on pear (Kosui) tree, agent spread two times, at a flowering rate of 30% and 80%; type: in vivo
Excerpt: Using a pear (Kosui) tree, flower thinning effect was confirmed. That is, using the aforementioned pear tree, the flower thinning agent of Example 1 was spread at a concentration indicated in Table 6 two times, at a flowering rate of 30% and 80%. […] Treatment was every branch treatment, and the agent was spread with a back loading sprayer.
as §1, §2, §3, §4

grape (King Dela) tree = assay: Flower thinning effect on grape (King Dela) tree, agent spread two times, at a flowering rate of 30% and 80%; type: in vivo
Excerpt: Using a grape (King Dela) tree, flower thinning effect was confirmed.
Assessment was expressed as a remaining fruit rate regarding the number of flowering.

apple (Fuji) tree = assay: Flower thinning effect on apple (Fuji) tree, agent spread two times, one day and three days after full blooming of a central flower; type: in vivo
Excerpt: Using an apple (Fuji) tree, flower thinning effect was confirmed. […] Assessment was expressed by a remaining fruit rate regarding a central flower and a lateral flower.

[3] = effective ingredient conc. 0.33%
[4] = effective ingredient conc. 1.00%

Structure (SMILES) | Remaining fruit rate (%) (pear (Kosui) tree [1]; effective ingredient conc. 0.15%) | Remaining fruit rate (%) (pear (Kosui) tree [1]; effective ingredient conc. 0.45%) | Remaining fruit rate (%) (pear (Kosui) tree [2]; [3]) | Remaining fruit rate (%) (pear (Kosui) tree [2]; [4]) | Remaining fruit rate (%) (grape (King Dela) tree; [3]) | Remaining fruit rate (%) (grape (King Dela) tree; [4]) | Remaining fruit rate (%) (pear (Kosui) tree [1]; [3]) | Remaining fruit rate (%) (pear (Kosui) tree [1]; [4]) | Fruition rate (%) Central flower (apple (Fuji) tree; [3]) | Fruition rate (%) Lateral flower (apple (Fuji) tree; [3]) | Fruition rate (%) Central flower (apple (Fuji) tree; [4]) | Fruition rate (%) Lateral flower (apple (Fuji) tree; [4])
O=C[O-].O=C[O-].[Ca+2] [calcium formate] | 79.9% | 72.3% |  |  |  |  |  |  |  |  |  | 
C=C(CC(=O)O)C(=O)O [itaconic acid] |  |  | 57.9% | 53.3% | 57.5% | 53.0% | 70.0% | 63.9% | 88.2% | 57.9% | 85.4% | 50.3%
